Results reported in patent US8883963B2 (Cadila Healthcare Limited, priority 2007, dated 2014).

Tested on: C57BL/6J mice (mild hyperglycemic)
Test: In vivo glucose reduction, acute single dose 120-min time-course, i.p. route
Parameters: species or system mouse; unit not given here
Conditions: male C57BL/6J mice
Experimental: All the animal experiments were carried out according to the internationally valid guidelines following approval by the ‘Zydus Research Center animal ethical committee’.
Two days prior to the study, the animals were randomised and divided into 5 groups (n=6), based upon their fed glucose levels. On the day of experiment, food was withdrawn from all the cages, water was given ad-libitum and were kept for overnight fasting. Vehicle (normal saline)/test/standard compounds were administered intraperitoneally (i.p.) or orally, on a body weight basis.
Blood samples were centrifuged and the separated serum was immediately subjected for the glucose estimation. Serum for insulin estimation was stored at −70° C. until used for the insulin estimation. The glucose estimation was carried out with DPEC-GOD/POD method (Ranbaxy Fine Chemicals Limited, Diagnostic division, India), using Spectramax-190, in 96-microwell plate reader (Molecular devices Corporation, Sunnyvale, Calif.). […] The AUC and BCAUC obtained from graphs were analyzed for one way ANOVA, followed by Dunnett's post test, using Graph Pad prism software. Furthermore, the insulin estimation was carried out using rat/mouse insulin ELISA kit (Linco research, Missouri USA).

Compound | blood glucose levels (50 nM/kg i.p., 0 min) | blood glucose levels (50 nM/kg i.p., 30 min) | blood glucose levels (50 nM/kg i.p., 60 min) | blood glucose levels (50 nM/kg i.p., 120 min) | blood glucose levels (10 nM/kg i.p., 0 min) | blood glucose levels (10 nM/kg i.p., 30 min) | blood glucose levels (10 nM/kg i.p., 60 min) | blood glucose levels (10 nM/kg i.p., 120 min)
CCc1cc(OC)ccc1-c1ccc(CC(CNC(CCCc2ccccc2)C(N)=O)NC[C@H](CC(=O)O)NC(=O)[C@H](CO)NC(=O)[C@@H](NC(=O)C(C)(Cc2ccccc2F)NC(=O)[C@@H](NC(=O)CNC(=O)[C@H](CCC(N)=O)NC(=O)C(C)(C)NC(=O)[C@H](Cc2c[nH]cn2)NC(=O)OC)[C@H](C)O)[C@H](C)O)cc1 (single isomer, unassigned) [Seq. ID. 198] | 182 ± 4.1 | 112 ± 3.1 | 113 ± 2.6 | 111 ± 1.8 | – | – | – | –
CCc1cc(OC)ccc1-c1ccc(CC(CNC(CCCc2ccccc2F)C(N)=O)NC[C@H](CC(=O)O)NC(=O)[C@H](CO)NC(=O)[C@@H](NC(=O)C(C)(Cc2ccccc2F)NC(=O)[C@@H](NC(=O)CNC(=O)[C@H](CCC(N)=O)NC(=O)C(C)(C)NC(=O)[C@H](Cc2c[nH]cn2)NC(=O)OC)[C@@H](C)O)[C@@H](C)O)cc1 (single isomer, unassigned) [Seq. ID. 196] | 181 ± 2.5 | 111 ± 3.4 | 113 ± 3.1 | 110 ± 1.8 | – | – | – | –
CCc1cc(OC)ccc1-c1ccc(CC(CNC(CCCc2ccccc2)C(N)=O)NC[C@H](CC(=O)O)NC(=O)[C@H](CO)NC(=O)[C@@H](NC(=O)C(C)(Cc2ccccc2F)NC(=O)[C@@H](NC(=O)CNC(=O)[C@H](CCC(N)=O)NC(=O)C(C)(C)NC(=O)[C@H](Cc2c[nH]cn2)NC(=O)OC)[C@@H](C)O)[C@@H](C)O)cc1 (single isomer, unassigned) [Seq. ID. 194] | – | – | – | – | 183 ± 2.2 | 113 ± 2.8 | 113 ± 2.9 | 114 ± 2.0
CCc1cc(OC)ccc1-c1ccc(CC(CNC(CCCc2ccccc2F)C(N)=O)NC(=O)[C@H](CC(=O)O)NC(=O)[C@H](CO)NC(=O)[C@@H](NC(=O)C(C)(Cc2ccccc2F)NC(=O)[C@@H](NC(=O)CNC(=O)C(CCC#N)NC(=O)C(C)(C)NC(=O)[C@@H](N)Cc2c[nH]cn2)[C@H](C)O)[C@H](C)O)cc1 (single isomer, unassigned) [Seq. ID. 192] | – | – | – | – | 180 ± 2.5 | 110 ± 2.6 | 111 ± 3.2 | 112 ± 2.3
